Assay results from PubChem BioAssay (NCI).
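The compound was tested at five concentrations on cells cultured in 96-well plates, with a 48-hour exposure period. GI50: concentration for 50% inhibition of growth. The concentration for full growth arrest is given as TGI.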

Columns and labels:
Experiment in all cases: DTP human tumour cell line panel, 48 h
M14 melanoma = test system: M14 melanoma
SN12C renal = test system: SN12C renal
SR leukemia = test system: SR leukemia
RXF 393 renal = test system: RXF 393 renal
HOP-92 NSCLC = test system: HOP-92 NSCLC
SF-268 CNS = test system: SF-268 CNS
786-0 renal = test system: 786-0 renal
HS 578T breast = test system: HS 578T breast
SK-MEL-28 melanoma = test system: SK-MEL-28 melanoma
U251 CNS = test system: U251 CNS
CAKI-1 renal = test system: CAKI-1 renal
NCI-H23 lung = test system: NCI-H23 lung
IGROV1 ovarian = test system: IGROV1 ovarian
A498 renal = test system: A498 renal
COLO 205 colon = test system: COLO 205 colon
UO-31 renal = test system: UO-31 renal
HT29 colon = test system: HT29 colon
ACHN renal = test system: ACHN renal
DU-145 prostate = test system: DU-145 prostate
K-562 leukemia = test system: K-562 leukemia
RPMI-8226 leukemia = test system: RPMI-8226 leukemia
KM12 colon = test system: KM12 colon
OVCAR-3 ovarian = test system: OVCAR-3 ovarian
HCT-116 colon = test system: HCT-116 colon
NCI/ADR-RES ovarian = test system: NCI/ADR-RES ovarian
A549 NSCLC = test system: A549 NSCLC
SF-295 CNS = test system: SF-295 CNS
T-47D breast = test system: T-47D breast
MALME-3M melanoma = test system: MALME-3M melanoma
HCC-2998 colon = test system: HCC-2998 colon
NCI-H460 lung = test system: NCI-H460 lung
PC-3 prostate = test system: PC-3 prostate
MDA-MB-435 = test system: MDA-MB-435
SW-620 colon = test system: SW-620 colon
SK-MEL-5 melanoma = test system: SK-MEL-5 melanoma
HL-60(TB) leukemia = test system: HL-60(TB) leukemia
UACC-62 melanoma = test system: UACC-62 melanoma
OVCAR-4 ovarian = test system: OVCAR-4 ovarian
MDA-MB-231 breast = test system: MDA-MB-231 breast
HOP-62 NSCLC = test system: HOP-62 NSCLC
SK-OV-3 ovarian = test system: SK-OV-3 ovarian
SNB-19 CNS = test system: SNB-19 CNS
SF-539 CNS = test system: SF-539 CNS
HCT-15 colon = test system: HCT-15 colon
NCI-H226 lung = test system: NCI-H226 lung
MOLT-4 leukemia = test system: MOLT-4 leukemia
LOX IMVI melanoma = test system: LOX IMVI melanoma
OVCAR-5 ovarian = test system: OVCAR-5 ovarian
TK-10 renal = test system: TK-10 renal
SK-MEL-2 melanoma = test system: SK-MEL-2 melanoma
OVCAR-8 ovarian = test system: OVCAR-8 ovarian
UACC-257 melanoma = test system: UACC-257 melanoma
BT-549 breast = test system: BT-549 breast
MCF7 breast = test system: MCF7 breast
SNB-75 CNS = test system: SNB-75 CNS
NCI-H522 lung = test system: NCI-H522 lung
CCRF-CEM leukemia = test system: CCRF-CEM leukemia

## COc1cccc(-n2cc(-c3nc(Nc4cc(C)[nH]n4)c4ccccc4n3)nn2)c1
M14 melanoma
  GI50: 1.1 µM
  TGI: 9.51 µM
SN12C renal
  GI50: 3.04 µM
  TGI: 12.4 µM
SR leukemia
  GI50: 2.03 µM
  TGI: 13.5 µM
RXF 393 renal
  GI50: 1.45 µM
  TGI: 8.92 µM
HOP-92 NSCLC
  GI50: 1.67 µM
  TGI: 9.53 µM
SF-268 CNS
  GI50: 5.39 µM
  TGI: 13.8 µM
786-0 renal
  GI50: 2.89 µM
  TGI: 9.85 µM
HS 578T breast
  GI50: 2.6 µM
  TGI: 16.5 µM
SK-MEL-28 melanoma
  GI50: 6.05 µM
  TGI: 13.9 µM
U251 CNS
  GI50: 1.87 µM
  TGI: 9.32 µM
CAKI-1 renal
  GI50: 0.165 µM
  TGI: 5.62 µM
NCI-H23 lung
  GI50: 6.28 µM
  TGI: 22.4 µM
IGROV1 ovarian
  GI50: 1.69 µM
  TGI: 10.1 µM
A498 renal
  GI50: 0.291 µM
  TGI: 7.08 µM
COLO 205 colon
  GI50: 6.8 µM
  TGI: 15.9 µM
UO-31 renal
  GI50: 0.187 µM
  TGI: 5.39 µM
HT29 colon
  GI50: 7.05 µM
  TGI: 14.5 µM
ACHN renal
  GI50: 0.261 µM
  TGI: 7.04 µM
DU-145 prostate
  GI50: 5.51 µM
  TGI: 11.7 µM
K-562 leukemia
  GI50: 2.59 µM
  TGI: 14.7 µM
RPMI-8226 leukemia
  GI50: 3.57 µM
  TGI: 13.8 µM
KM12 colon
  GI50: 1.69 µM
  TGI: 7.39 µM
OVCAR-3 ovarian
  GI50: 5.71 µM
  TGI: 12.6 µM
HCT-116 colon
  GI50: 2.1 µM
  TGI: 10.5 µM
NCI/ADR-RES ovarian
  GI50: 0.234 µM
  TGI: 12.5 µM
A549 NSCLC
  GI50: 2.33 µM
  TGI: 11.4 µM
SF-295 CNS
  GI50: 2.88 µM
  TGI: 11 µM
T-47D breast
  GI50: 2 µM
  TGI: 9.61 µM
MALME-3M melanoma
  GI50: 5.31 µM
  TGI: 13.7 µM
HCC-2998 colon
  GI50: 5.86 µM
  TGI: 13.3 µM
NCI-H460 lung
  GI50: 2.65 µM
  TGI: 11.3 µM
PC-3 prostate
  GI50: 3.48 µM
  TGI: 11.9 µM
MDA-MB-435
  GI50: 2.24 µM
  TGI: 9.18 µM
SW-620 colon
  GI50: 5.22 µM
  TGI: 14.9 µM
SK-MEL-5 melanoma
  GI50: 1.07 µM
  TGI: 4.06 µM
HL-60(TB) leukemia
  GI50: 2.85 µM
  TGI: 14.5 µM
UACC-62 melanoma
  GI50: 2.86 µM
  TGI: 11.3 µM
OVCAR-4 ovarian
  GI50: 2.24 µM
  TGI: 9.57 µM
MDA-MB-231 breast
  GI50: 3.02 µM
  TGI: 15.6 µM
HOP-62 NSCLC
  GI50: 1.64 µM
  TGI: 8.4 µM
SK-OV-3 ovarian
  GI50: 2.34 µM
  TGI: 10.8 µM
SNB-19 CNS
  GI50: 6.61 µM
  TGI: 15.7 µM
SF-539 CNS
  GI50: 4.25 µM
  TGI: 11.1 µM
HCT-15 colon
  GI50: 0.228 µM
  TGI: 9.23 µM
NCI-H226 lung
  GI50: 4.02 µM
  TGI: 10.6 µM
MOLT-4 leukemia
  GI50: 2.01 µM
  TGI: 9.8 µM
LOX IMVI melanoma
  GI50: 5.15 µM
  TGI: 12.3 µM
OVCAR-5 ovarian
  GI50: 3.51 µM
  TGI: 12 µM
TK-10 renal
  GI50: 0.438 µM
  TGI: 8.42 µM
SK-MEL-2 melanoma
  GI50: 1.71 µM
  TGI: 9.27 µM
OVCAR-8 ovarian
  GI50: 2.88 µM
  TGI: 11.7 µM
UACC-257 melanoma
  GI50: 7.75 µM
  TGI: 15 µM
BT-549 breast
  GI50: 7.04 µM
  TGI: 13.5 µM
MCF7 breast
  GI50: 4.76 µM
  TGI: 14 µM
SNB-75 CNS
  GI50: 1.15 µM
  TGI: 7.9 µM
NCI-H522 lung
  GI50: 3.38 µM
  TGI: 10.2 µM
CCRF-CEM leukemia
  GI50: 2.82 µM
  TGI: 16.8 µM
